Structure (SMILES) | melting point [°C]
CCCCc1oc2ccccc2c1C(=O)NCc1ccc2c(Br)c(O)ccc2c1 | 192 to 193
COc1ccc2c(c1)c(-c1[nH]c3ncccc3c1C)cn2C | 237
O=C(C1CCN(c2ccncn2)C1)N1CCNCC1 (stereo not drawn) | 129 to 131
O=c1ccc(S(=O)(=O)c2c[nH]c3ccccc23)n[nH]1 | 248 to 250
CC1(c2cc(-c3ccc(F)cc3F)cc(C(=O)Nc3ccc(S(=O)(=O)C(F)(F)F)cc3Cl)c2O)CCCCC1 | 114 to 115
O=C(CNC1CCCCC1)Nc1ccc([N+](=O)[O-])cc1 | 123 to 125
COc1cc(N2CCC(N3CCCN(CCO)CC3)CC2)ccc1Nc1ncc2ccc(-c3ccccc3OC)n2n1 | 72 to 80
CC(=O)c1ccc(-c2cc(-c3c(-c4ccccn4)nc4ccccn34)ccn2)cc1 | 214
C=CCN(CC=C)c1nc(NC(=O)C=C(C)C)n2oc(=O)nc2n1 | 165 to 166
Cc1cc(-c2cnn3c(C(F)(F)F)cc(-c4ccc(C(F)(F)F)cc4)nc23)cc(C)n1 | 257
COCOc1cc(OC)ccc1C=O | 55 to 56
CN1c2ccc(Cl)cc2C(c2ccccc2)=Nc2cccnc21 | 153 to 156
COCCNC(=O)c1cccc2c1C1(COc3cc4c(cc31)OCCO4)C(=O)N2C (stereo not drawn) | 97 to 100
CS(=O)(=O)Nc1cc2occc(=O)c2cc1Oc1ccccc1 | 217 to 218
Cc1noc(NS(=O)(=O)c2ccccc2-c2ccc(-c3ncoc3C)cc2)c1C | 86 to 96
N#Cc1c(N2CCc3ccccc3CC2)nc(COC2CCCCO2)[nH]c1=O (stereo not drawn) | 180 to 183
COc1ccc(CNc2cc(Cl)ncc2C(=O)NCc2ncccn2)cc1Cl | 134 to 136
COc1cc(CCc2ccccc2OCc2ccccc2)ncc1C(=O)O | 182
O=C1c2cccc(OC(F)=C(F)F)c2C(=O)N1c1ccc(OC(F)=C(F)F)cc1 | 172
CC(C)(C)OC(=O)NC(COCCCN)(COCCCN)COCCCN | 96 to 98
Cc1ccc2c3c(ccc2n1)OCC(CN1CC=C(c2c[nH]c4ccccc24)CC1)O3 (stereo not drawn) | 210
CC(CCCC(=O)O)(c1ccc(OCc2ccc3ccccc3n2)cc1)c1ccc(OCc2ccc3ccccc3n2)cc1 | 87 to 89
CN(C(=O)c1ccc2nsnc2c1)C1CCOCC1 | 106 to 108
CN[C@@H](CSC(c1ccccc1)(c1ccccc1)c1ccccc1)C(=O)O | 114
O=C(O)c1ccc(C=C(C(=O)C2CC2)C(=O)C2CC2)cc1 | 175 to 178

Structure (SMILES) | melting point [°C]
Cc1ccc(C(=O)Nc2ccc(C)c(-c3nc(S(C)(=O)=O)nc4c3CNC(=O)N4c3c(F)cccc3F)c2)cc1F | > 270
Cc1c(Br)sc2ccc(Br)cc12 | 118 to 122
CCCCCCCCCCCCCCOc1ccc(C(=O)OCC)o1 | 39 to 40
CC(=O)OCC(=O)CS(=O)(=O)C(c1ccc(Cl)cc1)c1ccc(Cl)cc1 | 57 to 60
COc1ccccc1OCC1(COc2ccccc2OC)NCCS1 | 86 to 88
CC12CCC3C(CCC4C(=O)CCCC43C)C1CCC2O (stereo not drawn) | 123 to 126
COC(=O)c1[nH]c2c(C)ccc(C)c2c1NC(C)=O | 221 to 222
Cc1cc(O)c(C(=O)Nc2ccc(S(=O)(=O)C(F)(F)F)cc2Cl)c(C)c1S(C)=O (stereo not drawn) | 205 to 206
CCc1n[nH]c(CC)c1CCCCCCOc1ccc([N+](=O)[O-])cc1Cl | 130 to 132
COC(=O)c1cccc2c1ccn2S(=O)(=O)c1ccc(C)cc1 | 145 to 147
CN(C)C(=O)C(C#N)=C(OC(=O)c1ccc(Cl)cc1[N+](=O)[O-])c1ccc(Cl)cc1[N+](=O)[O-] | 137 to 146
CS(=O)Cc1ccc(C(=O)c2ccc(Cl)cc2)cc1 (stereo not drawn) | 116 to 118
Cc1nn(C)c(O)c1C(=O)c1ccc(Cl)cc1[N+](=O)[O-] | 223 to 224
CCCCOC(=O)c1ccc2cc(O)ccc2c1 | 107 to 112
Cc1cc(C)c(C)c(COc2cccc(-c3ccoc3C(=O)NNC(=O)c3ccc(O)c([N+](=O)[O-])c3)c2)c1C | 140 to 142
CCCCCCCC[C@@H](O)C(=O)Nc1cccc2nc(SC)ccc12 | 119 to 120
O=C(Nc1cccc(Cl)c1)N1CCc2cc(S(=O)(=O)N3CCN(c4cccc(Cl)c4)CC3)ccc21 | 190
CCOC(=O)c1cc(=O)c2ccc(OC(=S)N(C)C)cc2o1 | 160 to 161
Cc1cc(N)nc(CCC(=O)Nc2cc(I)cnc2N)c1 | 172
COc1cc(C(=O)NCCc2cccc(C)c2)cc(OC)c1OC | 105 to 108
CC1(C)CCC(Cc2ccc(Cl)cc2)C1(O)Cn1ccnc1 (stereo not drawn) | 130 to 132
CCCCc1cc2cc(OCC(=O)OCC)c(Cl)c(Cl)c2s1 | 72 to 73
CN1CCN(c2cccc3ccc(NC(=O)OCc4ccccc4)cc23)CC1 | 143 to 144
Cc1ccccc1-c1nc(-c2ccccc2C)nc(-c2ccccc2C)n1 | 110
COC(=O)CCCc1cc2nc(Cl)ccc2n1S(=O)(=O)c1cccnc1 | 119

Structure (SMILES) | melting point [°C]
CSc1nccc(-c2nc(=O)c3ccccc3s2)n1 | 224
COc1ccc(CN(C)CCCCc2ccc(NC(=O)c3cccc4c(=O)c5ccccc5n(C)c34)cc2)cc1OC | 142
CCC(C)COc1ccc(N=Nc2ccc(F)cc2)cc1 (stereo not drawn) | 64.3 to 65
CC(Cl)(Cl)C(NC(=O)c1cc(F)cc(F)c1)Nc1c(Nc2cccnc2)c(=O)c1=O (stereo not drawn) | 231 to 232
Nc1cccc(C(=O)NCCCn2ccnc2)c1 | 88 to 90
CCC[C@H]1CC[C@H](CCc2ccc(-c3ccc(OCC)c(F)c3F)cc2)CC1 | 73
O=S1(=O)CCN(CCCN2CCc3sc(Nc4ncc(F)cn4)nc3-c3c[nH]nc32)CC1 | 272 to 273
CS(=O)c1ccc2nc(C(F)(F)F)nc(Cl)c2c1 (stereo not drawn) | 105 to 107
CC(=O)c1c(O)cc(O)cc1O | 218 to 219
Cc1cc2c(-c3cccc(Cl)c3)nc(Cl)nc2s1 | 118 to 120
C[C@H](NC(=O)c1c(CN2CCNCC2)c(-c2ccccc2)nc2ccccc12)C1CCCCC1 | 116 to 118
NC(=O)c1ccc(-c2ccc3nnn(Cc4ccc5ncccc5c4)c3n2)cc1F | 198 to 200
OC1c2cc(OCc3ccc4ccccc4n3)ccc2OCCC1Oc1ccccc1 (stereo not drawn) | 128 to 129
CC[C@@]12C/C(=C\c3ccccc3)C(=O)C[C@H]1CCc1cc(O)ccc12 | 265 to 266
COc1ccc(C(N)=O)c(N)c1 | 152 to 156
CNC(=S)N(C)Cc1cccnc1 | 86 to 87
COc1ccc2[nH]c(SCc3ncc(C)c(N(C)C)c3Cl)nc2c1 | 109 to 110
COc1cc(C=C(C)C(=O)O)ccc1O | 144 to 145
Cc1noc(C)c1-c1nn(C(C)c2oc3ccccc3c(=O)c2-c2cccc(F)c2)c2ncnc(N)c12 (stereo not drawn) | 218 to 222
O=C1CCCC(C(=O)c2ccc(Cc3ccc(F)cc3)o2)=C1O | 133 to 134
COc1ccc(S(=O)(=O)N(CC(=O)NO)Cc2ccc3ccccc3n2)cc1 | 177 to 178
COC12CC(COS(=O)(=O)c3ccc(C)cc3)CN(C)C1Cc1cn(C(C)(C)C)c3cccc2c13 (stereo not drawn) | 150 to 152
CON1CCC2(CC1)NC(=O)C(c1c(C)cc(C#C[Si](C)(C)C)cc1C)=C2O | > 240
C#CCN(Cc1ccc2nc(C)[nH]c(=O)c2c1)c1ccc(C(=O)NCc2cccc([N+](=O)[O-])c2)c(N)c1 | 86 to 92
CCCCOc1c(CNC(=O)OC(C)(C)C)n(CC2CC2)c(=O)c2ccc(C(N)=O)cc12 | 202 to 203

Structure (SMILES) | melting point [°C]
Cn1nc(Cl)c(C(=O)C(Br)c2ccccc2)c1Cl (stereo not drawn) | 74.5 to 75.5
COc1ccc2c(c1)C(=O)C(CC=O)C2 (racemic) | 59
Cc1ccc(-c2ccc3c(c2)C=C(C(=O)Nc2ccc(CS(=O)c4ccccc4)cc2)CCO3)cc1 (stereo not drawn) | 127 to 128
CCOC(=O)c1c(=O)c2cc(F)c(N3CCN(C)CC3)cc2n2ccccc12 | 167 to 170
O=c1c2ccc(Cl)cc2[nH]c2c(=O)n(CCO)nc(O)c12 | 377 to 378
Cc1ccc(C(=O)c2[nH]c3ccc(Cl)cc3c2CC(=O)O)nc1 | 247 to 248
CCCCC(CNC(=O)Nc1c(C(C)C)cccc1C(C)C)c1cccc(C)c1 (stereo not drawn) | 173 to 174
O=C(OC1CCCCC1)c1ncn2c1[C@@H]1CCCN1C(=O)c1c(Cl)cccc1-2 | 166 to 167
CN(C)c1ccc(-c2nc3cccnc3o2)cc1 | 168 to 170
Cc1cc2c(c(C)n1)c(=O)oc1ccccc12 | 194 to 197
Cc1cc(-n2c(C)nnc2C)cc2ccc(=O)[nH]c12 | 308 to 310
O=C(NS(=O)(=O)N1CCCCC1)C1=NN(c2ccc(Cl)cc2)C(c2ccccc2)C1 (stereo not drawn) | 176 to 179
COC(=O)COc1cc2c(c(Cl)c1Cl)C(=O)C(c1ccccc1)C2 (stereo not drawn) | 152 to 153
CC(C)(C)OC(=O)N1CC=C(C2=C(C#N)C(c3cccc4nonc34)c3c[nH]nc3N2)CC1 (stereo not drawn) | 222
CS(=O)(=O)OCC1CCN(C(=O)OCc2ccccc2)CC1 | 72 to 74
Fc1ccc(-c2ccn(C3CCNCC3)c2-c2ccncc2)cc1 | 191 to 192
O=C(O)c1ccc(-c2nc(-c3cccnc3)cs2)cc1 | 303 to 304
CC1CN(C(=O)COc2cc(-c3ccccc3)nc3ccccc23)CC(C)O1 (stereo not drawn) | 117
CCOC(=O)c1ncn2c1[C@@H]1CCCN1C(=O)c1cc([N+](=O)[O-])ccc1-2 | 191 to 193
CC1CC(=O)NN=C1c1ccc(NC(=O)Oc2ccc([N+](=O)[O-])cc2)cc1 (stereo not drawn) | 177 to 178
CC(C)(C)C(=O)OCn1nc2ccc(OCCCN3CCC(OC(c4ccccc4)c4ccccc4)CC3)nn2c1=O | 108 to 110
COC(=O)c1ccc(NCc2cccc(F)c2)cc1 | 107 to 110
CCCc1ccc(Cc2c(C(F)(F)F)[nH][nH]c2=O)cc1 | 114 to 116

— a melting point compilation (Tetko et al.; mined from patent text by program, amines drawn as free bases though some values may be those of a salt)
